Results on one compound are retold here after EP2276483B1, “SOLID FORMS COMPRISING (+)-2-[1-(3-ETHOXY-4-METHOXYPHENYL)-2-METHYLSULFONYLETHYL]-4-ACETYLAMINOISOINDOLINE-1,3-DIONE, COMPOSITIONS THEREOF, AND USES THEREOF” (CELGENE CORPORATION, priority 2008, dated 2009).

For test [1], the target named is T1, PDE6 from bovine retinal rod outer segments (Bos taurus, UniProt P11541+P23439).
T1 construct: PDE6 from bovine retinal rod outer segments; from tissue; host or cells: bovine retinal rod outer segments
T1 sequence (P11541 2-856 limits assumed): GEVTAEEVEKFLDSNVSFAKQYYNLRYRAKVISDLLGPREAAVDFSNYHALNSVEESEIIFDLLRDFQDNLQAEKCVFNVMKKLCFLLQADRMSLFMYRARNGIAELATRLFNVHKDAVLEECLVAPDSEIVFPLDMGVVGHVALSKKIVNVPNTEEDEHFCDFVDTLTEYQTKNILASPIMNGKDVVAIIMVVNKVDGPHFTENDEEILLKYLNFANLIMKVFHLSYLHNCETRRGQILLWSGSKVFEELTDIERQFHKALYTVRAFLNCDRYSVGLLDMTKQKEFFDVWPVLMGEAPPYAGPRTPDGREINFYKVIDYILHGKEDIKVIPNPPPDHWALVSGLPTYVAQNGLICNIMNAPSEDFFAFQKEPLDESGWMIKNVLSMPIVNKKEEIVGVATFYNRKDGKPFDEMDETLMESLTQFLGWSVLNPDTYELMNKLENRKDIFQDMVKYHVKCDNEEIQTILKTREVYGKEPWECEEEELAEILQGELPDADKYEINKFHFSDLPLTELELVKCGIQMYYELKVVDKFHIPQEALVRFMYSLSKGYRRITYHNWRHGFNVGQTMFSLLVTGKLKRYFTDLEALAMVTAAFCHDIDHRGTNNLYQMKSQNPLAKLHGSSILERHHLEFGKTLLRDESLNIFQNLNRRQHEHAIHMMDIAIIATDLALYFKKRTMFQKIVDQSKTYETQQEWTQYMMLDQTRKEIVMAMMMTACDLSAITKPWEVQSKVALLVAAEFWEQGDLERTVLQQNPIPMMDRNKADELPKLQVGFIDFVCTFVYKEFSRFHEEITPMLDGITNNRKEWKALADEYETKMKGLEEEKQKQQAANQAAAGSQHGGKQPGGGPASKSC
T1 sequence (P23439 2-850 limits assumed): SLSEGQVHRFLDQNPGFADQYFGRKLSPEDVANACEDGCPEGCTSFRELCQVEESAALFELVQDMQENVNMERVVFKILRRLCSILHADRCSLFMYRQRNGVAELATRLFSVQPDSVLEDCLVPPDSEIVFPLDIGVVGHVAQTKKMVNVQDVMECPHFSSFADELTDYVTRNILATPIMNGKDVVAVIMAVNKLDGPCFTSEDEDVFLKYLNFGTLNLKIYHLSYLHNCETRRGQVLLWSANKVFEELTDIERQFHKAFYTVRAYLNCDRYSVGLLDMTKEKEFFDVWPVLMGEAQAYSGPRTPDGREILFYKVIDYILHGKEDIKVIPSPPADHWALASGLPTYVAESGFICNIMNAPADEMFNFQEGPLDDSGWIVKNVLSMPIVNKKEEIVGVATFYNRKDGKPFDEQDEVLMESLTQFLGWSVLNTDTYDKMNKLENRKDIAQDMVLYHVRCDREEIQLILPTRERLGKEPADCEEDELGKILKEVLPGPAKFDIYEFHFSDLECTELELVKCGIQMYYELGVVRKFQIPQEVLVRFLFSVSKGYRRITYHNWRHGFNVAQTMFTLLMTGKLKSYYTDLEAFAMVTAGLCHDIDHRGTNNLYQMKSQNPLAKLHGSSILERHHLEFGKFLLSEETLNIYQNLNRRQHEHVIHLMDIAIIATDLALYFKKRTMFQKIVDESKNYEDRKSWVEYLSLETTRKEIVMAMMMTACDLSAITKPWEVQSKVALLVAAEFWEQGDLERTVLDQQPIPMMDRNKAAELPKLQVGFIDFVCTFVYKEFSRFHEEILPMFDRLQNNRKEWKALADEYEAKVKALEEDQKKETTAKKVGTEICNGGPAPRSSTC
In words: PDE6 enzyme assay. The test is classed as biochemical.

The subject of the next test is PDE4 (from U937 cells). Nature of the test: PDE4 (U937 cell-derived) enzyme assay. Type of test: biochemical, human. The settings on record: 1 µM cAMP. The protocol: PDE4 enzyme was purified from U937 human monocytic cells by gel filtration chromatography as previously described (Muller et al., 1998, Bioorg. & Med. Chem. Lett. 8:2669-2674). Phosphodiesterase reactions were carried out in 50 mM Tris HCl pH 7.5, 5 mM MgCl2, 1 µM cAMP, 10 nM [^3H]-cAMP for 30 min at 30°C, terminated by boiling, treated with 1 mg/ml snake venom, and separated using AG-1XS ion exchange resin (BioRad) as described (Muller et al., 1998, Bioorg. & Med. Chem. Lett. 8:2669-2674). Reactions consumed less than 15% of available substrate. Table 1. PDE Specificity

For the next test, the system named is IL-2. In words: cells. The following applies: Homo sapiens, PBMC, read-out: IL-2 IC50. The test is classed as cell-based.
The target of test [2] is PDE7 purified from Hut78 human T cells (Homo sapiens, UniProt Q13946). In words: PDE7 enzyme assay. Type of test: biochemical. The method, then:
PDE7 is a cAMP-selective PDE expressed mainly in T cells and in skeletal muscle. T cell-derived cytokines such as IL-2 and IFN-γ are potentially regulatable via PDE7 inhibition. […] Compounds were tested against the PDE7 preparation in the presence of 10 nM cAMP as described for PDE4 in Table 1.

Another test relates to IFN-γ. Nature of the test: SEB-induced IFN-γ production in human PBMC. The test is classed as cell-based. The settings on record: 100 ng/ml SEB.

Chain of PDE7 purified from Hut78 human T cells (Q13946 whole entry): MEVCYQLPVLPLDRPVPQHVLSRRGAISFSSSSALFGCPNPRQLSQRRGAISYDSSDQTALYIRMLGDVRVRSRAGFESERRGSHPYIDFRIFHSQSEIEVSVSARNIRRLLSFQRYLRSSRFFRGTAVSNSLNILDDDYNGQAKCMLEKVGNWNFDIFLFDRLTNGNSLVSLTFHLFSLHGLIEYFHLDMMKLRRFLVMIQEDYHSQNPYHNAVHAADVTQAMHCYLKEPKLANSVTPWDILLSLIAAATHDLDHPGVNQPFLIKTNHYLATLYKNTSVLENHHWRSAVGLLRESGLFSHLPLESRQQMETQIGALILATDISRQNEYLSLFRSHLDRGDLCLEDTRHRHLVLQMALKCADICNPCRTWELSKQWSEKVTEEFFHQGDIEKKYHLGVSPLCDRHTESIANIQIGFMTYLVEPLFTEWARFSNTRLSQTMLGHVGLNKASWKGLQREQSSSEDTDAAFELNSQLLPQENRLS

Consider `CCOc1cc(C(CS(C)(=O)=O)N2C(=O)c3cccc(NC(C)=O)c3C2=O)ccc1OC` (single isomer, unassigned; (+)) [Compound A, (+)-2-[1-(3-ethoxy-4-methoxyphenyl)-2-methylsulfonylethyl]-4-acetylaminoisoindoline-1,3-dione], for which the “PDE Specificity Ratio PDE4/PDE6” value in test [1] (from above data) is given as over 40000 fold. Moreover, in test [1] (read-out: PDE6 (% inhib at 10 µM)), the inhibition at 10 µM was -6%. For the same compound, the IC50 (in general, the point on the concentration scale where inhibition reaches its midpoint) is 73.5 nM in the test on PDE4 (from U937 cells), 291 nM in the test with IL-2, 20500 nM in test [2] (10 nM cAMP) and 46 nM with IFN-γ. The “PDE Specificity Ratio PDE7 IC50/PDE4 IC50” value in test [2] (from above data) was 279 fold.
